Entries after “also recorded” stand apart in the source; their conditions may differ. Blank lines part the entries; values can stand above or below the molecule they belong to. Residues, ends and D or L forms follow the SMILES beside them.
How the values were obtained:
mouse NSC = experiment: NSC differentiation on exposure to soluble heptapeptides (immunofluorescence); format: cell-based; details: 12 DIV; peptide 0.1 mg/ml in media; Cultrex and Laminin coated wells; vs untreated NSCs, p<0.05
Procedure: In vitro tests were performed as previously described (8), in order to assess whether the heptapeptides obtained of the present invention influence NSCs differentiation.
Murine cells (at a concentration of 2x10^4 cells/cm^2) were seeded in each well (96 multi-well plate) previously coated with Cultrex-BME® substrate (R&D systems) (1:100 dilution in basal medium, overnight incubation) or with Laminin (Roche) (1:5 dilution in PBS 1x, pH 7.4, overnight incubation).
Initially, cells were cultured with basal medium supplemented with βFGF (10 ng/ml), added to enhance neuronal progeny differentiation. At 3 days in vitro (DIV), βFGF medium was replaced with Leukemia Inhibitory Factor (LIF, Chemicon) (20 ng/ml) and Brain Derived Neurotrophic Factor (BDNF, Peprotech) (20 ng/ml). Fresh medium was added every three days. The chosen peptides were dissolved in all cell culture media (but not in the coatings) at a concentration of 0.1 mg/ml.
Immunofluorescence tests were performed for assaying the phenotypes of the differentiated murine NSC progenies. The following antibodies were used: rabbit polyclonal against GFAP (1:500, DakoCytomation) for astrocytes and mouse monoclonal against βIII-Tubulin (1:500, Covance) for neurons. Secondary Abs were Goat anti Mouse Alexa 488 (1:1000, Molecular Probes), Goat anti Mouse Cy3 (1:1000, Jackson Immunoresearch), Cell nuclei were counterstained with DAPI (Molecular Probes). Quantitative analyses were performed by counting 100-300 cells for each of 9 randomly chosen fields over a total of 3 independent experiments.
Values, reported as means ± standard error of the mean (Figure 1A).

murine NSCs [1] = experiment: Immunofluorescence of differentiated NSC progeny on scaffolds, murine NSCs; format: cell-based; details: 1% scaffold; compared to Cultrex positive control
Procedure: (§1) In vitro tests were performed as previously described (8), in order to assess whether the biomaterials (assembled hydrogels) obtained with the SAPs of the present invention influenced NSCs adhesion, survival and/or differentiation. SAPeptides (30 µl for each well at a concentration of 10 mg/ml) were assembled into 96 multiwells two hours before cell. Cells (at a concentration of 2x10^4 cells/cm^2) were seeded on the top-surface of each assembled scaffold. Initially, cells were cultured with basal medium supplemented with βFGF (10 ng/ml), added to enhance neuronal progeny differentiation. At 3 days in vitro (DIV), βFGF medium was replaced with Leukemia Inhibitory Factor (LIF, Chemicon) (20 ng/ml) and Brain Derived Neurotrophic Factor (BDNF, Peprotech) (20 ng/ml). Fresh medium was added every three days. For both viability and differentiation assays positive and negative controls consisted of Cultrex-BME® substrate (R&D systems) (1:100 dilution in basal medium) and untreated bottom well surfaces respectively. Cell viability was quantified via CellTiter 96® Aqueous Proliferation Assay (Promega) at 7 DIV as recommended in the Promega protocol. After calibrating the linear response between the cell number and absorbance values, proliferated cell populations were quantified (n=5) by using a Vmax microplate reader (Molecular Devices) at 490nm wavelength. Values, reported as means ± standard error of the mean, were blanked to their respective controls consisting of same substrates and cell culture media without cells.
(§2) Immunofluorescence tests were performed for assaying the phenotypes of the differentiated human and murine NSC progenies. In the case of KLP and Ac-KLP just murine NSC have been used. Ac-KLP and KLP scaffolds were prepared at different concentrations in order to display three different stiffness values (viz. 100, 500 and 1000 Pa). This was done to assess the influence of scaffold concentration (and consequently its stiffness) over NSC differentiation. All the other peptides were tested at 1% v/w concentration instead. The following antibodies were used: rabbit polyclonal against GFAP (1:500, DakoCytomation) for astrocytes, mouse monoclonal against βIII-Tubulin (1:500, Covance) for neurons, mouse monoclonal against GalC (1:200, Chemicon) and O4 (1:200, Chemicon) for oligodendrocyes. Secondary Abs were Goat anti Mouse Alexa 488 (1:1000, Molecular Probes), Goat anti Mouse Cy3 (1:1000, Jackson Immunoresearch), Goat anti Rabbit Cy3 (1:1000, Jackson Immunoresearch). Cell nuclei were counterstained with DAPI (Molecular Probes). Quantitative analyses were performed by counting 100-300 cells for each of 9 randomly chosen fields over a total of 3 independent experiments. Phase contrast and fluorescence images of the adhering cells were acquired via Zeiss microscopes Axioplan 2 and ApoTome System at one week after seeding.

[2] = Rheology (frequency, time and strain sweeps); format: physicochemical
Procedure: Rheological properties of the self-assembling peptides of the invention were determined using a controlled stress TA Instruments AR-2000ex rheometer (TA Instruments). A cone-and-plate geometry (acrylic cone diameter, 20 mm; angle, 1°; truncation gap 34 µm) was used. Preliminary strain sweeps were performed for each sample to define the linear viscoelastic region, thus ensuring that moduli were independent of strain. Time sweeps, after addition of PBS (1x) were recorded at 25 C (angular frequency ω=1 Hz) and continued till G' plateaued. Frequency sweeps, both for peptide water solutions and for self-assembled scaffolds, were performed at 25 C with the instrument in oscillatory mode at controlled strain of 1 %. Final strain sweeps was performed at 1Hz oscillatory frequency and at 25 C: onset point of failure was calculated by linear interpolation and subsequent determination of the intersection of the G' modes within the linear region and at material failure respectively.

murine NSCs [3] = experiment: Imaging and cell proliferation (MTS) assay on assembled scaffolds, murine NSCs; format: cell-based
Procedure: as §1

[4] = test system: acute contusive spinal cord injury (SCI); experiment: Acute contusive spinal cord injury model, histology and morphometrical quantification; format: in vivo, Sprague-Dawley rats; details: 8 weeks after injury
Procedure: (§3) 20 female Sprague-Dawley rats weighting 200-250 gr (Charles River Laboratories) were randomly divided into two groups: 1) spinal cord injured animals treated with Ac-FAQ and 2) spinal cord injured animals treated with the saline solution (control group). Rats were anesthetized with an intraperitoneal injection of ketamine (80 mg/kg) and xylazine (10 mg/kg). After laminectomy at the T9-T10 level, the exposed spinal cord was lesioned (Figure 8A1) by a 10-gram rod dropped from a height of 25 mm by using a MASCIS Impactor device (WM Keck Center for Collaborative Neuroscience, Rutgers University), as previously described 33. Immediately after injury, animals were injected with Ac-FAQ (1% acqueous solution) or the saline solution using an Hamilton syringe held via a micromanipulator (Figure 8A2). The biomaterial or the distilled water was delivered into the lesion site at distances of 500 µm, and at each interval two injections of 0,5 µl each were made, for a total dose of 3 µl. After injection, the muscles were sutured and the skin was closed with wound clips. […]
Quantitative analysis was performed on longitudinal sections of rat spinal cords, spanning between T7 and T12 and including the injury site (T9-T10).
The presence of axons expressing Gap-43 and βIII within the cyst was investigated. Gap-43 positive fibers were quantified and the relative value of GAP-43 immunopositive area was expressed as percentage of the total cyst area.
Injured tissue was quantified in seven-to-sixteen longitudinal sections per animal, depending on the cyst extent. […] Sections were stained with hematoxylin/eosin and images were captured (Axioplan2 Zeiss microscope) at 5x magnification, then single images were merged, converted into binary pictures and cavities into the injured area were quantified via Image J software (http://rsb.info.nih.gov/ij/). We measured also the whole injured tissue size. […]
Axon regeneration/sprouting, into the cyst area, was quantified on six longitudinal sections (spaced 160 µm) per animal via GAP-43 (1:200, Millipore) and Cy3-conjugated antibodies (1:1000, Jackson). […]

human NSCs [5] = experiment: Immunofluorescence of differentiated NSC progeny on scaffolds, human NSCs; format: cell-based; details: 1% scaffold; compared to Cultrex positive control
Procedure: as §1
as §2, with “Cell nuclei were counterstained with DAPI (Molecular Probes).” left out

human NSCs [6] = experiment: Imaging and cell proliferation (MTS) assay on assembled scaffolds, human NSCs; format: cell-based
Procedure: as §1

[7] = test system: acute contusive spinal cord injury (SCI); experiment: Acute contusive spinal cord injury model, BBB locomotor rating; format: in vivo, Sprague-Dawley rats
Procedure: as §3
Hindlimb recovery was assessed by using the Basso, Beattie, Bresnahan (BBB) Locomotor Rating Scale. Starting from 1 week post-injury, every 3-4 days each rat was observed and recorded with a digital video camera for 4 min in an open field. Rats were evaluated in double-blind experimental settings. […]

Compound: CC(C)C[C@H](NC(=O)[C@@H]1CCCN1C(=O)[C@H](C)NC(=O)[C@H](CCCNC(=N)N)NC(=O)[C@@H](NC(=O)[C@H](CCC(=O)O)NC(=O)CN)[C@@H](C)O)C(N)=O [#GET, NH4-GETRAPL-CONH2] (H-GETRAPL-NH2)
- percentage of differentiated neurons (Beta III Tubulin staining) (mouse NSC): significant increase

Compound: CC[C@H](C)[C@H](NC(=O)[C@H](C)NC(=O)[C@@H](N)Cc1c[nH]cn1)C(=O)N[C@@H](Cc1ccc(O)cc1)C(=O)N1CCC[C@H]1C(=O)N[C@@H](CCCNC(=N)N)C(=O)N[C@@H](Cc1c[nH]cn1)C(N)=O [#HAI, NH2-HAIYPRH-CONH2]
- percentage of differentiated neurons (Beta III Tubulin staining) (mouse NSC): significant increase

Compound: CC(C)C[C@H](NC(=O)[C@@H](N)CCCCN)C(=O)N1CCC[C@H]1C(=O)NCC(=O)N[C@@H](Cc1c[nH]c2ccccc12)C(=O)N[C@@H](CO)C(=O)NCC(N)=O [#KLP, NH2-KLPGWSG-CONH2] (H-KLPGWSG-NH2)
- percentage of differentiated neurons (Beta III Tubulin staining) (mouse NSC): significant increase; also recorded: Highest increase of the neuronal phenotype

- G' pre-assembling ([2]; average storage modulus of SAPeptide solution, 1% w/v, 1-100 Hz, before PBS): 5.11 Pa
- G' post-assembling ([2]; average storage modulus of jellified scaffold, 1% w/v, 1-100 Hz, after PBS): 551.9 Pa
- Onset point (% strain) ([2]; strain percentage at rupture, strain sweep at 1 Hz, 25 C): 22.75%
Compound: CC(=O)N[C@@H](Cc1ccccc1)C(=O)N[C@@H](C)C(=O)N[C@@H](CCC(N)=O)C(=O)N[C@@H](CCCNC(=N)N)C(=O)N[C@H](C(=O)N1CCC[C@H]1C(=O)N1CCC[C@H]1C(=O)NCC(=O)NCC(=O)NCC(=O)N[C@@H](CC(C)C)C(=O)N[C@@H](CC(=O)O)C(=O)N[C@@H](CC(C)C)C(=O)N[C@@H](CCCCN)C(=O)N[C@@H](CC(C)C)C(=O)N[C@@H](CC(=O)O)C(=O)N[C@@H](CC(C)C)C(=O)N[C@@H](CCCCN)C(=O)N[C@@H](CC(C)C)C(=O)N[C@@H](CC(=O)O)C(=O)N[C@@H](CC(C)C)C(=O)N[C@@H](CCCCN)C(N)=O)C(C)C [Ac-FAQ, Ac-FAQRVPP-GGG-LDLKLDLKLDLK-CONH2] (Ac-FAQRVPPGGGLDLKLDLKLDLK-NH2)
- number of neurons (murine NSCs [1]): significantly higher
- number of oligodendrocytes (murine NSCs [1]): significantly higher
- cell morphology, adhesion and spreading (murine NSCs [3]; 7 DIV on assembled hydrogels): spread and branched cells
- cell viability (MTS, cell population) (murine NSCs [3]; 7 DIV, scaffolds 10 mg/ml, vs control, P<0.005, n=5): cell population was bigger
- Average cumulative cyst area ([4]; hematoxylin/eosin longitudinal sections, not significant vs controls): 28.30 ± 6.70 mm^2
- cavities size within the cyst, excluding strands of trabeculae ([4]; not significant vs control): 16.77 ± 4.50 mm^2
- average immunopositivity for GAP-43 ([4]; p<0.05 vs saline-injected controls): 15.46 ± 1.94 % of the whole cyst area
- number of neurons (human NSCs [5]): significantly higher
- number of oligodendrocytes (human NSCs [5]): significantly higher
- cell morphology, adhesion and spreading (human NSCs [6]; 7 DIV on assembled hydrogels): spread and branched cells
- cell viability (MTS, cell population) (human NSCs [6]; 7 DIV, scaffolds 10 mg/ml, vs control, P<0.03, n=5): cell population was bigger
- BBB score ([7]; 1% aqueous solution, 3 µl into lesion site right after injury, week 6,7 and 8 after injury, mean ± SEM): 11.95 ± 0.30
- hindlimb motor recovery in comparison to controls ([7]; BBB scale, from week 6 after injury, p<0.05): significant improvement; also recorded: significantly improved locomotor recovery

Reference: EP2686338B1, “FUNCTIONALIZED BIOMATERIALS FOR TISSUE REGENERATION” (Nanomed3d S.r.l., priority 2011, dated 2018)
